Test results from patent US11331376B2, “Oral administration of unstable or poorly-absorbed drugs” (InnoPharmax, Inc., priority 2014, dated 2022).

Columns and labels:
[1] = test system: STZ-induced diabetic mice; test: In vivo hypoglycemic study, blood glucose after oral gavage in STZ-induced diabetic mice; parameters: species or system male C57BL/6JNarl mice
Description: Diabetes was induced in male C57BL/6JNarl mice (8 weeks age, around 20 grams body weight) by two tail vein injections of streptozotocin (STZ) (first: 75 mg/kg, second: 150 mg/kg). Induction of diabetes in mice was verified by measuring glucose concentration in a blood sample that was obtained from the tail vein. […] An composition containing 200 IU/kg of insulin was administered by oral gavage to each of eight STZ-induced diabetic mice in three groups (i.e., 24 mice total). A first group each received free non-modified insulin suspended in about 160-230 microliters (depending on animal weight) of a 3.78% (w/w) NaHCO3 antacid solution. A second group each received insulin in the form of Formulation 1 suspended in about 160-230 microliters of phosphate-buffered saline (PBS). A third group received Formulation 1 insulin in the form of Formulation 1 suspended in about 160-230 microliters of a 3.78% (w/w) NaHCO3 antacid solution (i.e., a ten-fold dilution of Formulation 1). […] Blood samples were drawn from each mouse following gavage, and blood glucose levels in those samples were determined. […] Drug remaining in the formulation was analyzed, and in vivo potency was also assessed by administering insulin formulation into streptozotocin-induced diabetic mice and measuring blood glucose with a glucometer.

[2] = test system: Caco-2 cell monolayers
Description: Caco-2 cells were cultured at 37±2 degrees Celsius in minimum essential medium (MEM) with Eagles salt and 1-glutamine supplemented with 15% fetal bovine serum, with 1% of non-essential amino acid, and with 1% of antibiotic-antimycotic in a incubator under a 5% carbon dioxide atmosphere to simulate intestinal lining cells.
At time zero, medium on one face of the cell monolayer was replaced by 0.5 milliliter of a solution that included one of Formulation 1, 2, or 3 or of insulin not incorporated into a SMEDDS-containing formulation. The solution was diluted ten-fold with medium (i.e., one part insulin-containing solution and nine parts buffer) prior to application to the monolayer. Thirty minutes following this replacement, insulin content at the basolateral face of the monolayer was analyzed by HPLC. The permeability coefficient (Papp) was calculated from the following equation: Papp=(dQ/dt)/(C0×area), where dQ/dt is the linear appearance rate obtained from the profile of the transported amount of the substrate against the time (measured in micrograms per second); C0 is a measured initial concentration in the donor compartment (measured in micrograms per milliliter), and “area” is the membrane surface area of the cell monolayer.

free insulin: non-modified human insulin not combined with a SMEDDS-containing composition
blood glucose levels at any time point ([1]; 200 IU/kg free insulin solution by oral gavage): No significant differences in the blood glucose levels | blood glucose levels over study period ([1]; 200 IU/kg oral gavage, free insulin in 3.78% NaHCO3 antacid solution): did not vary significantly | trans-monolayer transport of insulin [2]: No trans-monolayer transport
